By MIC is commonly meant the lowest concentration that inhibits growth of the organism.

The record followed here is patent US20220081421A1, “ANTIBACTERIAL COMPOUNDS” (Forge Therapeutics, Inc., priority 2018, published 2022).

≈ marks a conversion by molar mass, not a printed value.

This assay concerns E. coli. Kind of assay: MIC by broth microdilution (CLSI), E. coli. The following applies: Escherichia coli, broth microdilution, cation adjusted Mueller-Hinton Broth, 35° C., 18-24 h; read-out: E. coli MIC. Format: cell-based. The method, then: Minimal inhibitory concentrations (MIC) were determined by the broth microdilution method in accordance with the Clinical and Laboratory Standards Institute (CLSI) guidelines. In brief, organism suspensions were adjusted to a 0.5 McFarland standard to yield a final inoculum between 3×10^5 and 7×10^5 colony-forming units (CFU)/mL. Drug dilutions and inocula were made in sterile, cation adjusted Mueller-Hinton Broth (Beckton Dickinson). An inoculum volume of 100 μL was added to wells containing 100 μL of broth with 2-fold serial dilutions of drug. All inoculated microdilution trays were incubated in ambient air at 35° C. for 18-24 h. Following incubation, the lowest concentration of the drug that prevented visible growth (OD600 nm<0.05) was recorded as the MIC. Performance of the assay was monitored by the use of laboratory quality-control strains and levofloxacin, a compound with a defined MIC spectrum, in accordance with CLSI guidelines.
On the technique in general: Dilution methods test growth across graded concentrations, often in twofold steps.
In the case of `Cn1ccc(=O)c(O)c1CNc1ccc(C#Cc2ccc(CN3CCOCC3)cc2)cc1` [Compound 2, 3-hydroxy-1-methyl-2-(((4-((4-(morpholinomethyl)phenyl)ethynyl)phenyl)amino)methyl) pyridin-4(1H)-one], the MIC fell in the range of 8 to 32 µg/mL (≈ 18.6 to 74.5 µM). Consider `O=c1[nH]cnc(CCc2ncc(C#Cc3ccc(CN4CCOCC4)cc3)cn2)c1O` [Compound 21, 5-hydroxy-6-(2-(5-((4-(morpholinomethyl)phenyl)ethynyl)pyrimidin-2-yl)ethyl)pyrimidin-4(3H)-one], for which the minimum inhibitory concentration (MIC) was in the range of 1 to 8 µg/mL (≈ 2.4 to 19.2 µM). Next, `O=C1N(Cc2nc[nH]c(=O)c2O)Cc2cc(C#Cc3ccc(CN4CCOCC4)cc3)cn21` [Compound 81, 2-((5-hydroxy-6-oxo-1,6-dihydropyrimidin-4-yl)methyl)-6-((4-(morpholinomethyl)phenyl)ethynyl)-1,2-dihydro-3H-pyrrolo[1,2-c]imidazol-3-one]: 8 to 32 µg/mL (≈ 18 to 71.8 µM); `O=c1[nH]cnc(CN(CCO)c2ccc(C#Cc3ccc(CN4CCOCC4)cc3)cc2)c1O` [Compound 127, 5-hydroxy-6-(((2-hydroxyethyl)(4-((4-(morpholinomethyl)phenyl)ethynyl)phenyl)amino)methyl) pyrimidin-4(3H)-one]: > 32 µg/mL; `CC(=O)NCC(Cc1ccc(C#Cc2ccc(CN3CCOCC3)cc2)cc1)n1cncc(O)c1=O` (stereo not shown) [Compound 3, N-(2-(5-hydroxy-6-oxopyrimidin-1(6H)-yl)-3-(4-((4-(morpholinomethyl)phenyl)ethynyl)phenyl)propyl) acetamide]: > 32 µg/mL. For `CS(=O)(=O)NCC(Cc1ccc(C#Cc2ccc(CN3CCOCC3)cc2)cc1)n1cncc(O)c1=O` (stereo not shown) [Compound 7, N-(2-(5-hydroxy-6-oxopyrimidin-1(6H)-yl)-3-(4-((4-(morpholinomethyl)phenyl)ethynyl)phenyl)propyl) methanesulfonamide] the value was > 32 µg/mL; for `CNC(=O)C(Cc1ccc(C#Cc2ccc(CN3CCOCC3)cc2)cc1)c1nccc(O)c1O` (stereo not shown) [Compound 12, 2-(3,4-dihydroxypyridin-2-yl)-N-methyl-3-(4-((4-(morpholinomethyl)phenyl)ethynyl)phenyl)propanamide], 8 to 32 µg/mL (≈ 17 to 67.9 µM); for `N#CC(Cc1ccc(C#Cc2ccc(CN3CCOCC3)cc2)cc1)c1cc[nH]c(=O)c1O` (stereo not shown) [Compound 121, 2-(3-hydroxy-2-oxo-1,2-dihydropyridin-4-yl)-3-(4-((4-(morpholinomethyl)phenyl)ethynyl)phenyl)propanenitrile], > 32 µg/mL. For `CS(=O)(=O)C(Cc1ccc(C#Cc2ccc(CN3CCOCC3)cc2)cc1)c1occc(=O)c1O` (stereo not shown) [Compound 120, 3-hydroxy-2-(l1-(methylsulfonyl)-2-(4-((4-(morpholinomethyl)phenyl)ethynyl)phenyl)ethyl)-4H-pyran-4-one] the value was > 32 µg/mL; for `O=c1ccoc(CS(=O)(=O)c2ccc(C#Cc3ccc(CN4CCOCC4)cc3)cc2)c1O` [Compound 124, 3-hydroxy-2-(((4-((4-(morpholinomethyl)phenyl)ethynyl)phenyl)sulfonyl)methyl)-4H-pyran-4-one], > 32 µg/mL.

As for `O=c1[nH]cnc(C(Cc2ccc(C#Cc3ccc(CN4CCOCC4)cc3)cc2)Cn2cnnn2)c1O` (stereo not shown) [Compound 119, 5-hydroxy-6-(1-(4-((4-(morpholinomethyl)phenyl)ethynyl)phenyl)-3-(1H-tetrazol-1-yl)propan-2-yl)pyrimidin-4(3H)-one], the MIC is > 32 µg/mL.

For the compound `C=CCC(Nc1ccc(C#Cc2ccc(CN3CCOCC3)cc2)cc1)c1occc(=O)c1O` (stereo not shown) [Compound 126, 3-hydroxy-2-(1-((4-((4-(morpholinomethyl)phenyl)ethynyl)phenyl)amino)but-3-en-1-yl)-4H-pyran-4-one], the MIC was > 32 µg/mL. For `CNC(=O)C(Cc1ccc(C#Cc2ccc(CN3CCOCC3)cc2)cc1)n1cncc(O)c1=O` (stereo not shown) [Compound 4, 2-(5-hydroxy-6-oxopyrimidin-1(6H)-yl)-N-methyl-3-(4-((4-(morpholinomethyl)phenyl)ethynyl)phenyl)propanamide] the value was > 32 µg/mL.
